Reference: patent US20050203115A1, “Narcotic-NSAID ion pairs” (priority 2004, published 2005)
Like-named read-outs stand apart in the source and are kept apart here.

Columns and labels:
[1] = approx. 48 mg in 400 mL, 36.8° C., approximately 12 hours
Experimental: The solutions were stirred by paddles at 150 RPM for approximately 12 hours. […] The standards and sample preparations were measured at 282 nm in a 1 cm cell using a UV spectrophotometer. The results were determined from the linearity curve generated from the standard data.

[2] = methanolic solution 61 mg/mL added to HCl 0.1 N
From the text: Measurements were obtained using a Sympatec HELOS model KF particle sizer with SUCELL and R5 lens (0.5-875 μm), pump, and stirrer speeds set to 50% of the maximum value.

## CCC(=O)O[C@](Cc1ccccc1)(c1ccccc1)[C@H](C)CN(C)C.O=C(O)Cc1ccccc1Nc1c(Cl)cccc1Cl [Propoxyphene Diclofenate, (2S,3R)-(+)-4-(Dimethylamino)-3-methyl-1,2-diphenyl-2-butanol Propionate Diclofenate]
[1]; water pH 3
  % Dissolved: 0.009%
  mg Dissolved from 48 mg Solution: 0.004 mg
  mg/mL Dissolved: 1.0528e-05 mg/mL
[1]; water pH 5
  % Dissolved: 74.878%
  mg Dissolved from 48 mg Solution: 36.005 mg
  mg/mL Dissolved: 0.09 mg/mL
[1]; water pH 7
  % Dissolved: 75.677%
  mg Dissolved from 48 mg Solution: 36.644 mg
  mg/mL Dissolved: 0.0916 mg/mL
[1]; water pH 9
  % Dissolved: 71.168%
  mg Dissolved from 48 mg Solution: 34.018 mg
  mg/mL Dissolved: 0.08504 mg/mL
[1]; water pH 11
  % Dissolved: 39.395%
  mg Dissolved from 48 mg Solution: 18.700 mg
  mg/mL Dissolved: 0.04676 mg/mL
[2]; 15 minutes
  Particle size Mean: 152.4 μm
  Particle size ≦50%: 141.2 μm
  Particle size ≦90%: 287.9 μm
[2]; 45 minutes
  Particle size Mean: 155.5 μm
  Particle size ≦50%: 143.0 μm
  Particle size ≦90%: 293.9 μm
[2]; 75 minutes
  Particle size Mean: 161.7 μm
  Particle size ≦50%: 140.5 μm
  Particle size ≦90%: 308.6 μm
[2]; 120 minutes
  Particle size Mean: 149.2 μm
  Particle size ≦50%: 135.4 μm
  Particle size ≦90%: 286.3 μm
[2]; 150 minutes
  Particle size Mean: 124.2 μm
  Particle size ≦50%: 110.2 μm
  Particle size ≦90%: 238.4 μm
